Source: patent US7704995B2 (Exelixis, Inc., priority 2003, dated 2010)

Target: T1, Chk1 (Homo sapiens, UniProt O14757)
T1 construct: purchased Upstate Biotechnology
T1 sequence (O14757 1-476): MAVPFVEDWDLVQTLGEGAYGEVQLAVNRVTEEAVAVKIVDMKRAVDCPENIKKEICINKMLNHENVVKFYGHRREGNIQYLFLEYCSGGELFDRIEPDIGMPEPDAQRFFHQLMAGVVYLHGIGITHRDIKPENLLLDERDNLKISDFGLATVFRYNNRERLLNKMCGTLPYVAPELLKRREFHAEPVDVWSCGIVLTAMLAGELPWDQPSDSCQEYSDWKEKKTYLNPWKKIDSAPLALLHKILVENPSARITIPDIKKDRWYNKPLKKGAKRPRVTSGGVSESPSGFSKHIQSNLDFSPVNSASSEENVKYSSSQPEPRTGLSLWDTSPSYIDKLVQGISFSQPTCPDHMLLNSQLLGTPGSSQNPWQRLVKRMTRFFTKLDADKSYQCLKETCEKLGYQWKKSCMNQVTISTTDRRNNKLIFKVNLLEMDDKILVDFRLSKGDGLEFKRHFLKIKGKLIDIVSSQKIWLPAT
Experiment: Chk1 kinase assay: incorporation of γ-33P ATP into immobilized myelin basic protein
Format: biochemical
Conditions: Table 11, Chk1 only; class symbols A-D; read-out: Chk1 IC50
Method in brief: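 Chk1 (10 nM) or Chk2 (20 nM) phosphorylated plate-immobilized myelin basic protein for 1 h at room temperature in Hepes pH 7.6 buffer with MgCl2, DTT, 1% DMSO, γ-33P ATP plus 10 μM (Chk1) or 30 μM (Chk2) unlabeled ATP. Bound radioactivity counted by scintillation; IC50 determined, Ki derivable from IC50.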

IC50, 50 to 1000 nM:
Nc1ncc(-c2cccc(CNS(=O)(=O)c3ccc4cccnc4c3)c2)nc1C(=O)N[C@H]1CCCNC1 [Example 907, 3-amino-N-[(3S)-piperidin-3-yl]-6-(3-{[(quinolin-7-ylsulfonyl)amino]methyl}phenyl)pyrazine-2-carboxamide]
Nc1ncc(-c2cccc(CNS(=O)(=O)c3ccccc3C(F)(F)F)c2)nc1C(=O)N[C@H]1CCCNC1 [Example 915, 3-amino-N-[(3S)-piperidin-3-yl]-6-{3-[({[2-(trifluoromethyl)phenyl]sulfonyl}amino)methyl]phenyl}pyrazine-2-carboxamide]
Nc1ncc(-c2cccc(CNS(=O)(=O)c3ccc(OC(F)(F)F)cc3)c2)nc1C(=O)N[C@H]1CCCNC1 [Example 916, 3-amino-N-[(3S)-piperidin-3-yl]-6-(3-{[({4-[(trifluoromethyl)oxy]phenyl}sulfonyl)amino]methyl}phenyl)pyrazine-2-carboxamide]
Nc1ncc(-c2cccc(CNS(=O)(=O)c3ccccc3OC(F)(F)F)c2)nc1C(=O)N[C@H]1CCCNC1 [Example 917, 3-amino-N-[(3S)-piperidin-3-yl]-6-(3-{[({2-[(trifluoromethyl)oxy]phenyl}sulfonyl)amino]methyl}phenyl)pyrazine-2-carboxamide]
Nc1ncc(-c2cccc(CNS(=O)(=O)c3ccc(C(F)(F)F)cc3)c2)nc1C(=O)N[C@H]1CCCNC1 [Example 918, 3-amino-N-[(3S)-piperidin-3-yl]-6-{3-[({[4-(trifluoromethyl)phenyl]sulfonyl}amino)methyl]phenyl}pyrazine-2-carboxamide]
Nc1ncc(-c2cccc(CNC(=O)Nc3ccccc3OC(F)(F)F)c2)nc1C(=O)N[C@H]1CCCNC1 [Example 919, 3-amino-N-[(3S)-piperidin-3-yl]-6-[3-({[({2-[(trifluoromethyl)oxy]phenyl}amino)carbonyl]amino}methyl)phenyl]pyrazine-2-carboxamide]

IC50, < 50 nM:
Nc1ncc(-c2cccc(CNC(=O)c3ccc4ccccc4c3)c2)nc1C(=O)N[C@H]1CCCNC1 [Example 893, 3-amino-6-(3-{[(naphthalen-2-ylcarbonyl)amino]methyl}phenyl)-N-[(3S)-piperidin-3-yl]pyrazine-2-carboxamide]
Nc1ncc(-c2cccc(OCCN3CCN(c4ccccc4)CC3)c2)nc1C(=O)N[C@H]1CCCNC1 [Example 894, 3-amino-6-(3-{[2-(4-phenylpiperazin-1-yl)ethyl]oxy}phenyl)-N-[(3S)-piperidin-3-yl]pyrazine-2-carboxamide]
Nc1ncc(-c2cccc(CNC(=O)Nc3ccc(Br)cc3)c2)nc1C(=O)N[C@H]1CCCNC1 [Example 895]
Nc1ncc(-c2cccc(CNC(=O)Nc3ccc4ccccc4c3)c2)nc1C(=O)N[C@H]1CCCNC1 [Example 896]
Nc1ncc(-c2cccc(NC(=O)Cc3ccc(F)cc3F)c2)nc1C(=O)N[C@H]1CCCNC1 [Example 897, 3-amino-6-(3-{[(2,4-difluorophenyl)acetyl]amino}phenyl)-N-[(3S)-piperidin-3-yl]pyrazine-2-carboxamide]
Nc1ncc(-c2cccc(NC(=O)Cc3ccccc3F)c2)nc1C(=O)N[C@H]1CCCNC1 [Example 898, 3-amino-6-(3-{[(2-fluorophenyl)acetyl]amino}phenyl)-N-[(3S)-piperidin-3-yl]pyrazine-2-carboxamide]
Nc1ncc(-c2cccc(NC(=O)c3ccc(-c4cc(C(F)(F)F)ccc4Cl)o3)c2)nc1C(=O)N[C@H]1CCCNC1 [Example 899, 3-amino-6-{3-[({5-[2-chloro-5-(trifluoromethyl)phenyl]furan-2-yl}carbonyl)amino]phenyl}-N-[(3S)-piperidin-3-yl]pyrazine-2-carboxamide]
CN(C)c1ccc(C(=O)Nc2cccc(-c3cnc(N)c(C(=O)N[C@H]4CCCNC4)n3)c2)c2ccccc12 [Example 900, 3-amino-6-[3-({[4-(dimethylamino)naphthalen-1-yl]carbonyl}amino)phenyl]-N-[(3S)-piperidin-3-yl]pyrazine-2-carboxamide]
Nc1ncc(-c2cccc(NC(=O)c3ccc(-c4cnns4)cc3)c2)nc1C(=O)N[C@H]1CCCNC1 [Example 901, 3-amino-N-[(3S)-piperidin-3-yl]-6-[3-({[4-(1,2,3-thiadiazol-5-yl)phenyl]carbonyl}amino)phenyl]pyrazine-2-carboxamide]
Cc1cc(C(=O)Nc2cccc(-c3cnc(N)c(C(=O)N[C@H]4CCCNC4)n3)c2)n(C)n1 [Example 902, 3-amino-6-(3-{[(1,3-dimethyl-1H-pyrazol-5-yl)carbonyl]amino}phenyl)-N-[(3S)-piperidin-3-yl]pyrazine-2-carboxamide]
CN(C)c1ccc(C(=O)NCc2cccc(-c3cnc(N)c(C(=O)N[C@H]4CCCNC4)n3)c2)cc1 [Example 903, 3-amino-6-{3-[({[4-(dimethylamino)phenyl]carbonyl}amino)methyl]phenyl}-N-[(3S)-piperidin-3-yl]pyrazine-2-carboxamide]
Nc1ncc(-c2cccc(OCCO)c2)nc1C(=O)N[C@H]1CCCNC1 [Example 904, 3-amino-6-{3-[(2-hydroxyethyl)oxy]phenyl}-N-[(3S)-piperidin-3-yl]pyrazine-2-carboxamide]
Nc1ncc(-c2cccc(CNS(=O)(=O)c3ccc4c(c3)CCO4)c2)nc1C(=O)N[C@H]1CCCNC1 [Example 905, 3-amino-6-(3-{[(2,3-dihydro-1-benzofuran-5-ylsulfonyl)amino]methyl}phenyl)-N-[(3S)-piperidin-3-yl]pyrazine-2-carboxamide]
Nc1ncc(-c2cccc(CNS(=O)(=O)c3ccc4c(c3)OCCCO4)c2)nc1C(=O)N[C@H]1CCCNC1 [Example 906, 3-amino-6-(3-{[(3,4-dihydro-2H-1,5-benzodioxepin-7-ylsulfonyl)amino]methyl}phenyl)-N-[(3S)-piperidin-3-yl]pyrazine-2-carboxamide]
Nc1ncc(-c2cccc(CNC(=O)Nc3ccc(-c4ccccc4)cc3)c2)nc1C(=O)N[C@H]1CCCNC1 [Example 908, 3-amino-6-[3-({[(biphenyl-4-ylamino)carbonyl]amino}methyl)phenyl]-N-[(3S)-piperidin-3-yl]pyrazine-2-carboxamide]
Nc1ncc(-c2cccc(NC(=O)c3ccc(Br)cc3F)c2)nc1C(=O)N[C@H]1CCCNC1 [Example 909, 3-amino-6-(3-{[(4-bromo-2-fluorophenyl)carbonyl]amino}phenyl)-N-[(3S)-piperidin-3-yl]pyrazine-2-carboxamide]
Nc1ncc(-c2cccc(NC(=O)c3cnc4ccccc4c3)c2)nc1C(=O)N[C@H]1CCCNC1 [Example 910, N-[3-(5-amino-6-{[(3S)-piperidin-3-ylamino]carbonyl}pyrazin-2-yl)phenyl]quinoline-3-carboxamide]
COc1ccc2c(CC(=O)Nc3cccc(-c4cnc(N)c(C(=O)N[C@H]5CCCNC5)n4)c3)coc2c1 [Example 911, 3-amino-6-[3-({[6-(methyloxy)-1-benzofuran-3-yl]acetyl}amino)phenyl]-N-[(3S)-piperidin-3-yl]pyrazine-2-carboxamide]
Nc1ncc(-c2cccc(NC(=O)c3ccccc3-c3ccc(C(F)(F)F)cc3)c2)nc1C(=O)N[C@H]1CCCNC1 [Example 912, 3-amino-N-[(3S)-piperidin-3-yl]-6-[3-({[4′-(trifluoromethyl)biphenyl-2-yl]carbonyl}amino)phenyl]pyrazine-2-carboxamide]
Nc1ncc(-c2cccc(NC(=O)Cc3cc(C(F)(F)F)cc(C(F)(F)F)c3)c2)nc1C(=O)N[C@H]1CCCNC1 [Example 913, 3-amino-6-[3-({[3,5-bis(trifluoromethyl)phenyl]acetyl}amino)phenyl]-N-[(3S)-piperidin-3-yl]pyrazine-2-carboxamide]
Nc1ncc(-c2cccc(CNC(=O)Nc3ccc(F)cc3F)c2)nc1C(=O)N[C@H]1CCCNC1 [Example 914, 3-amino-6-{3-[({[(2,4-difluorophenyl)amino]carbonyl}amino)methyl]phenyl}-N-[(3S)-piperidin-3-yl]pyrazine-2-carboxamide]
CSc1ccccc1NC(=O)NCc1cccc(-c2cnc(N)c(C(=O)N[C@H]3CCCNC3)n2)c1 [Example 920, 3-amino-6-(3-{[({[2-(methylthio)phenyl]amino}carbonyl)amino]methyl}phenyl)-N-[(3S)-piperidin-3-yl]pyrazine-2-carboxamide]
Cc1cc(Br)cc(NC(=O)NCc2cccc(-c3cnc(N)c(C(=O)N[C@H]4CCCNC4)n3)c2)c1 [Example 921, 3-amino-6-{3-[({[(3-bromo-5-methylphenyl)amino]carbonyl}amino)methyl]phenyl}-N-[(3S)-piperidin-3-yl]pyrazine-2-carboxamide]
Nc1ncc(-c2cccc(CNC(=O)Nc3ccccc3Br)c2)nc1C(=O)N[C@H]1CCCNC1 [Example 922, 3-amino-6-{3-[({[(2-bromophenyl)amino]carbonyl}amino)methyl]phenyl}-N-[(3S)-piperidin-3-yl]pyrazine-2-carboxamide]
